# Test system: P12-Ichikawa
# Experiment: cell viability relative to DMSO control; higher = less cytotoxic
# Conditions: 48 h
# How it was run: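 Before seeding, each leukemia line was adapted for at least four passages in each medium. NOMO1 or SEM cells (500 cells/well) and P12-Ichikawa cells (1000 cells/well) went into 1536-well plates at 5 μl, then received library compounds in DMSO by pin dosing across 11 threefold concentrations, 47 μM to 0.79 nM. Readout was CellTiter-Glo One luminescence after 48 h at 37°C, and viability is given as a per-plate percentage of DMSO wells, with cell-free wells as background.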
# [1] = HPLM + 10% dialyzed FBS, 0.000781 µM
# [2] = HPLM + 10% dialyzed FBS, 0.00234 µM
# [3] = HPLM + 10% dialyzed FBS, 0.00702 µM
# [4] = HPLM + 10% dialyzed FBS, 0.0211 µM
# [5] = HPLM + 10% dialyzed FBS, 0.0632 µM
# [6] = HPLM + 10% dialyzed FBS, 0.19 µM
# [7] = HPLM + 10% dialyzed FBS, 0.569 µM
# [8] = HPLM + 10% dialyzed FBS, 1.71 µM
# [9] = HPLM + 10% dialyzed FBS, 5.12 µM
# [10] = HPLM + 10% dialyzed FBS, 15.4 µM
# [11] = HPLM + 10% dialyzed FBS, 46.1 µM
# [12] = RPMI 5 mM glucose + 10% FBS, 0.000781 µM
# [13] = RPMI 5 mM glucose + 10% FBS, 0.00234 µM
# [14] = RPMI 5 mM glucose + 10% FBS, 0.00702 µM
# [15] = RPMI 5 mM glucose + 10% FBS, 0.0211 µM
# [16] = RPMI 5 mM glucose + 10% FBS, 0.0632 µM
# [17] = RPMI 5 mM glucose + 10% FBS, 0.19 µM
# [18] = RPMI 5 mM glucose + 10% FBS, 0.569 µM
# [19] = RPMI 5 mM glucose + 10% FBS, 1.71 µM
# [20] = RPMI 5 mM glucose + 10% FBS, 5.12 µM
# [21] = RPMI 5 mM glucose + 10% FBS, 15.4 µM
# [22] = RPMI 5 mM glucose + 10% FBS, 46.1 µM
# [23] = RPMI 5 mM glucose + 10% dialyzed FBS, 0.000781 µM
# [24] = RPMI 5 mM glucose + 10% dialyzed FBS, 0.00234 µM
# [25] = RPMI 5 mM glucose + 10% dialyzed FBS, 0.00702 µM
# [26] = RPMI 5 mM glucose + 10% dialyzed FBS, 0.0211 µM
# [27] = RPMI 5 mM glucose + 10% dialyzed FBS, 0.0632 µM
# [28] = RPMI 5 mM glucose + 10% dialyzed FBS, 0.19 µM
# [29] = RPMI 5 mM glucose + 10% dialyzed FBS, 0.569 µM
# [30] = RPMI 5 mM glucose + 10% dialyzed FBS, 1.71 µM
# [31] = RPMI 5 mM glucose + 10% dialyzed FBS, 5.12 µM
# [32] = RPMI 5 mM glucose + 10% dialyzed FBS, 15.4 µM
# [33] = RPMI 5 mM glucose + 10% dialyzed FBS, 46.1 µM
Compound,cell viability [1] [%],cell viability [2] [%],cell viability [3] [%],cell viability [4] [%],cell viability [5] [%],cell viability [6] [%],cell viability [7] [%],cell viability [8] [%],cell viability [9] [%],cell viability [10] [%],cell viability [11] [%],cell viability [12] [%],cell viability [13] [%],cell viability [14] [%],cell viability [15] [%],cell viability [16] [%],cell viability [17] [%],cell viability [18] [%],cell viability [19] [%],cell viability [20] [%],cell viability [21] [%],cell viability [22] [%],cell viability [23] [%],cell viability [24] [%],cell viability [25] [%],cell viability [26] [%],cell viability [27] [%],cell viability [28] [%],cell viability [29] [%],cell viability [30] [%],cell viability [31] [%],cell viability [32] [%],cell viability [33] [%]
Oc1ccc(C2CCN(c3ccnc4ccccc34)CC2)cc1O,102,118,111,113,112,117,110,106,70.8,67.4,63.4,112,110,109,125,122,107,113,110,71.5,55.1,48.5,96.5,113,106,110,107,112,111,97.5,59.2,45.8,40.8
CN1\C(=C(\O)C2=C(C=CS2)[S+]1([O-])=O)C(=O)NC3=CC=CC=N3,110,105,114,116,114,111,110,105,106,103,104,110,128,119,116,118,118,118,92.1,103,97.9,101,117,113,116,115,118,111,110,109,100,105,109
CC(C)(C)C(=O)Oc1ccc([S+](=O)([O-])Nc2ccccc2C(=O)NCC(=O)O)cc1,113,114,113,111,117,122,116,115,111,123,133,107,106,111,106,115,123,113,119,126,131,134,112,115,106,118,113,117,120,121,122,132,138
Cc1cc(Nc2nc(N[C@@H](C)c3ncc(F)cn3)ncc2Cl)n[nH]1,95.1,111,109,114,116,119,126,108,70.6,55,56.9,113,122,116,126,112,112,118,118,115,98,42.5,109,110,119,117,121,119,109,118,90.8,50.6,45.2
CCCCCCCc1ccc(CCc2cccc(O)c2C(=O)O)cc1,122,124,126,124,119,111,123,110,108,104,90.2,125,121,127,129,128,119,107,111,104,97.7,91.3,,,,,,,,,,,
CN1CCC(CC1)COC2=CN=C(N=C2)C3=CC(=CC=C3)CN4/N=C(\C=C/C4=O)C5=CC(=CC=C5)C#N,103,112,112,114,119,112,114,123,113,112,105,107,113,111,102,122,118,118,111,123,112,113,117,112,119,112,130,123,131,120,118,121,122
CO[C@H]1C[C@@H]2CC[C@@H](C)[C@@](O)(O2)C(=O)C(=O)N2CCCC[C@H]2C(=O)O[C@H]([C@H](C)C[C@@H]2CC[C@@H](OC(=O)C(C)(CO)CO)[C@H](OC)C2)CC(=O)[C@H](C)/C=C(\C)[C@@H](O)[C@@H](OC)C(=O)[C@H](C)C[C@H](C)/C=C/C=C/C=C/1C,110,117,113,106,104,107,100,96,87.2,83.4,77.9,92.8,111,97.6,97.8,94.1,90,87.6,84.4,65.8,63.3,50.1,94.3,110,110,92,92.8,96.7,85,89.8,78.2,66.5,52.5
C=CC1=C(C(=O)O)N2C(=O)[C@@H](NC(=O)/C(=N\O)c3csc(N)n3)[C@H]2SC1,100,115,79.3,116,131,122,121,117,125,35.2,123,101,112,66.1,116,117,123,124,115,119,124,109,99.2,118,75.5,112,124,117,117,129,115,123,125

# From the supplement of paper PMC11451515
